Earlier results, collected in US20220323445A1, “REDUCING IMMUNOGENICITY TO PEGLOTICASE” (Horizon Therapeutics Ireland DAC, priority 2020, published 2022).

Legend:
[1] = prophylaxis of gout; cited from earlier work
[2] = patients treated with allopurinol; cited from earlier work

| SMILES | pharyngolaryngeal pain [1] [%] | patients who develop allergic reactions [2] | severe hypersensitivity syndrome [2] |
| --- | --- | --- | --- |
| COc1cc2c(c(OC)c1OC)-c1ccc(OC)c(=O)cc1[C@@H](NC(C)=O)CC2 [colchicine] | 3 |  |  |
| Oc1ncnc2[nH]ncc12 [allopurinol] |  | Approximately 2% | about 0.4% |
